Results taken from PMC3016878 (Chembiochem : a European journal of chemical biology, 2010).

Molecular target: AAC(3)-IV; AAC(3) (Escherichia coli, UniProt Q306W4)
Assay: UV-vis acetyltransferase assay, Michaelis-Menten
Type: biochemical
Conditions: co-substrate apramycin

CC(=O)SCCNC(=O)CCNC(=O)[C@H](O)C(C)(C)COP(=O)(O)OP(=O)(O)OC[C@H]1O[C@@H](n2cnc3c(N)ncnc32)[C@H](O)[C@@H]1OP(=O)(O)O [AcCoA] was tested, and the KM was “Michaelis-Menten plot for modification of apramycin by AcCoA and AzAcCoA”.
